One assay addresses ER in MCF-7 cells (Homo sapiens (Human), UniProt P03372). Kind of assay: In-cell Western (ICW) ER degradation assay in MCF-7 cells. It counts as cell-based. The settings on record: for DC50: MCF-7, ER degradation, read-out: MCF7 DC50.
The target of another assay is ER in T47D cells (Homo sapiens (Human), UniProt P03372). Description: In-cell Western (ICW) ER degradation assay in T47D cells. In kind it is cell-based. Particulars: for DC50: ER degradation.
Another assay deals with ERα_LBD (GST) (Homo sapiens (Human), UniProt P03372). Kind of assay: IC50 measurements for binding to ERα_LBD (GST), LanthaScreen TR-FRET competitive binding. Particulars: ERα_LBD (GST) 4 nM, Fluormone ES2 Green tracer, 60 min; read-out: ERα HTRF IC50. On the procedure:
In vitro Assay: IC50 Measurements for binding to ERα_LBD (GST) • Final assay conditions: • 1. ERα_LBD (GST) protein: 4 nM • 2. Tb Anti-GST: 2 nM • 3. Fluormone ES2 Green tracer: 3 nM • 4. Incubation time: 60 min • 5. DMSO: 1% • 6. Assay buffer: Adding 1M DTT to Nuclear receptor Buffer K for final 5 mM DTT. • 7. ZPE: 1% DMSO • 8. HPE: 1 μM ARV_471 (positive control) • 9. LanthaScreen® TR-FRET ERα Competitive Binding Assay (ThermoFisher, #A^15887) • 100× Compound preparation
1) Cherry pick 2 μL 10 mM compound stock to column 1 of a 384 intermediate plate. • 2) Add 18 μL DMSO to column 1 to dilute compound to 1 mM. • 3) Transfer 10 μL 1 mM compound to column 1 of a LDV plate. • 2) Add 6 μl DMSO to column 2-10 of the LDV plate. • 3) Compounds undergo 3-fold serial dilution (3 μL+6 μL) in DMSO. • 4) Transfer 120 nL compound solution to assay plate. ZPE: 120 nL 100% DMSO • Procedure:
Complete nuclear receptor buffer K was prepared by adding 1 M DTT to nuclear receptor buffer K for a final concentration of 5 mM DTT. Complete nuclear receptor buffer K must be prepared fresh daily, 2X protein solution was prepared using complete nuclear receptor buffer K containing 8 nM ERα_LBD (GST) and 4 nM Tb Anti-GST. Then, 2X Fluormone ES2 Green tracer (6 nM) was prepared using complete nuclear receptor buffer K. Add 6 μL 2X Fluormone ES2 green tracer into a compound plate (PerkinElmer 6008289) by dragonfly with one-tips-addition. Subsequently, 6 μL 2× protein solution was added into the plate. The 384-well plate was mixed on a plate shaker and incubated at room temperature protected from light for 60 min. The plate was scaled with a cover to minimize evaporation. The plate was read at wavelengths of 520 nm and 495 nm. The TR-FRET ratio was calculated by dividing the emission signal at 520 nm by the emission signal at 495 nm. A binding curve was generated by plotting the emission ratio vs, the log [ligand]. To determine the IC50 value, fit the data using XL-fit for a sigmoidal dose-response.
On the technique in general: TR-FRET usually uses a lanthanide donor and a delayed reading to cut background.

For the next assay, the target named is CRBN/DDB1 (Homo sapiens (Human), UniProt Q96SW2). It counts as binding. Particulars: His tagged CRBN+DDB1, Cy5-labeled Thalidomide probe, one hour; read-out: CRBN HTRF IC50. Here is the method:
The binding potency was determined using HTRF assay technology (Perkin Elmer). Compounds were serially diluted in DMSO and […] volume was transferred to white 384-well plate.

Another assay relates to MCF-7 cells. Description: CellTiter-Glo (CTG) cell proliferation assay in MCF-7 cells. In kind it is cell-based. The settings on record: Homo sapiens, MCF7, 144 h, MCF-7 cell proliferation, Day 6. The source says:
CellTiter-Glo® (CTG) Assays in MCF-7 and T47D Cell Lines.
In vitro Assay: MCF-7 and T47D CTG assay

The mark [1] stands for this setting: MCF7, MCF-7, maximal ER degradation, 16 hrs treatment, read-out: MCF7 Dmax.
[2] abbreviates: maximal ER degradation, 16 hrs treatment, read-out: T47D Dmax.
[3] abbreviates: MCF7, read-out: MCF7 Dmax, MCF-7, maximal ER degradation, 16 hrs treatment.
[4] abbreviates: read-out: T47D Dmax, T47D, maximal ER degradation, 16 hrs treatment.

pIC50: −log10 of the molar value. Read-outs that look alike come from different tables or passages of the source.

One may read the Dmax as the largest share of the target that was removed. Usually DC50 stands for the concentration giving 50% degradation. In general, pIC50 refers to the IC50 on a negative log10 scale, so that one unit is a factor of ten.

ER in T47D cells, sequence (P03372 whole entry): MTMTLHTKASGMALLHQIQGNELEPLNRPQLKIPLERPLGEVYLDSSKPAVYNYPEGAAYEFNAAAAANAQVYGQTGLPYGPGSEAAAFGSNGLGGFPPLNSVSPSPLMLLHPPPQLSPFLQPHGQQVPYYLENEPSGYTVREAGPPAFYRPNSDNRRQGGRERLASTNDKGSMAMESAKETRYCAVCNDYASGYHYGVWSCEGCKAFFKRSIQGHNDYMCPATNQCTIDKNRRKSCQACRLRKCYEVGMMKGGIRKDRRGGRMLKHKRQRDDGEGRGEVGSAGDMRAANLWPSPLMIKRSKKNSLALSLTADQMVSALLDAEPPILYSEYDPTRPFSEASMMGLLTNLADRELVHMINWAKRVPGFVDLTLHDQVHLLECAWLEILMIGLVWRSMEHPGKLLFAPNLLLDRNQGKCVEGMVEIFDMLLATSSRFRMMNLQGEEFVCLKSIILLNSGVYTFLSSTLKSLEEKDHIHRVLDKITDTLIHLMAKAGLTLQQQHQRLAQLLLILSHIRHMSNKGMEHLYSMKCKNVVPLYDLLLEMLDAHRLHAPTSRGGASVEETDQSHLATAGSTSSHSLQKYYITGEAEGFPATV
ER in MCF-7 cells, sequence (P03372 whole entry): as above
ERα_LBD (GST), sequence (P03372 311-547): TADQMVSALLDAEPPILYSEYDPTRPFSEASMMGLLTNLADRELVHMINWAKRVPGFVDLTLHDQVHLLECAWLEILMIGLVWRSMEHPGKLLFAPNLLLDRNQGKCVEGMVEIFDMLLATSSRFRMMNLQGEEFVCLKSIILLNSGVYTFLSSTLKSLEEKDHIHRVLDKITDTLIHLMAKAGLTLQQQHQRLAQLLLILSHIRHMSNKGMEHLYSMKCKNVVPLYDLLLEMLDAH
CRBN/DDB1, sequence (Q96SW2 whole entry, species assumed): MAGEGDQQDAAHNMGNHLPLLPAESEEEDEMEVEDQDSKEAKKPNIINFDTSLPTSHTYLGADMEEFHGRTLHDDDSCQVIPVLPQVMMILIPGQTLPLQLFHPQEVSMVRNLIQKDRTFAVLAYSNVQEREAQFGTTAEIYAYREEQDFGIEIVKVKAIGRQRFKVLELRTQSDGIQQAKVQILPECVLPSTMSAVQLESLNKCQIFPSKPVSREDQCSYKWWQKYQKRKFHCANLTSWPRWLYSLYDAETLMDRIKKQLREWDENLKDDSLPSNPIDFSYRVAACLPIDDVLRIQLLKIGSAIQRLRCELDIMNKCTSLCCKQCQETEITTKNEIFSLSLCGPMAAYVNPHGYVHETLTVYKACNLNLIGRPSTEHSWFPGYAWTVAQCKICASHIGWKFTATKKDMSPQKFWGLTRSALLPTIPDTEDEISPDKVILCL
CRBN/DDB1, sequence (Q16531 whole entry partner, species assumed): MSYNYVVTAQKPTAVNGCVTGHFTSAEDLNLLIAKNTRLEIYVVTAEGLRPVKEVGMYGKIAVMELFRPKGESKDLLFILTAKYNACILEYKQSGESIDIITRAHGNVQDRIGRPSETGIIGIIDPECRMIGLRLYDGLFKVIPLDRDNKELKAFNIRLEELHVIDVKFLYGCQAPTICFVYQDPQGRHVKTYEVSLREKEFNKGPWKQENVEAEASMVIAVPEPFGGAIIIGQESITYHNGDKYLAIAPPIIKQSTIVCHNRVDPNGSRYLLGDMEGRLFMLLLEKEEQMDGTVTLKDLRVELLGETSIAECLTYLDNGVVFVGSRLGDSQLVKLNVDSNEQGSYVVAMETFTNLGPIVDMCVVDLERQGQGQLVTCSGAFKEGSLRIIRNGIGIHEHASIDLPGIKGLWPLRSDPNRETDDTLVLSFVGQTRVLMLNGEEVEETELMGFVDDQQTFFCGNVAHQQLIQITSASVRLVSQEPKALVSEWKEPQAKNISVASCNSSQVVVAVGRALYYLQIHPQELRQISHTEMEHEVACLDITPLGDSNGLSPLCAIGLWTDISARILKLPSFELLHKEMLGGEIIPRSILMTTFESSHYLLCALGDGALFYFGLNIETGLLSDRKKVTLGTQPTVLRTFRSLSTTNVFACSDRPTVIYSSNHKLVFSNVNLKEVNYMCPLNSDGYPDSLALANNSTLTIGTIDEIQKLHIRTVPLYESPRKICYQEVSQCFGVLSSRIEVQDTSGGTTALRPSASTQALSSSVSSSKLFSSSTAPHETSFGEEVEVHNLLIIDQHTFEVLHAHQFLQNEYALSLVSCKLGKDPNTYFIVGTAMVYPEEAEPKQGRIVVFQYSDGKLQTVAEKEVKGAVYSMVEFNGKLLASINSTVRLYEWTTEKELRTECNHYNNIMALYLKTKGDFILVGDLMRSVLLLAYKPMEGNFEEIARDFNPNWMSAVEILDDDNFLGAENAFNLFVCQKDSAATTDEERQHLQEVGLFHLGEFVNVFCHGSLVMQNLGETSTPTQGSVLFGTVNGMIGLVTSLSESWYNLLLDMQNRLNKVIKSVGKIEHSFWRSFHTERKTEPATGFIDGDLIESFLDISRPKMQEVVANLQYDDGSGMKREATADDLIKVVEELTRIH

Take `COc1cc(N2CCC3(CC2)CC(CN2CCN4c5ccc6c(c5OC[C@H]4C2)CN([C@H]2CCC(=O)NC2=O)C6=O)C3)c(F)cc1[C@@H]1c2ccc(O)cc2CC[C@@H]1c1ccccc1` [Compound A99, (S)-3-((R)-7-((7-(2-fluoro-4-((1S,2S)-6-hydroxy-2-phenyl-1,2,3,4-tetrahydronaphthalen-1-yl)-5-methoxyphenyl)-7-azaspiro[3.5]nonan-2-yl)methyl)-1-oxo-1,3,5,5a,6,7,8,9-octahydro-2H-pyrazino[1′,2′:4,5][1,4]oxazino[2,3-e]isoindol-2-yl)piperidine-2,6-dione]: the Dmax at ER in MCF-7 cells (setting [1]) and on ER in T47D cells (setting [2]) was over 75% in each case. Further, the DC50 on ER in MCF-7 cells (16 hrs treatment) and at ER in T47D cells (16 hrs treatment) was under 1 nM throughout. Moreover, on ERα_LBD (GST), the pIC50 is over 8.00.

With `COc1cc(N2CCC3(CC2)CC(CN2CCC(c4ccc(N[C@H]5CCC(=O)NC5=O)cc4)CC2)C3)c(F)cc1[C@H]1c2ccc(O)cc2CC[C@H]1c1ccccc1` (single isomer, unassigned) [Compound A32], the Dmax at ER in MCF-7 cells (setting [1]) and at ER in T47D cells (setting [2]) was 50 to 75% throughout. Besides, the DC50 at ER in MCF-7 cells (16 hrs treatment) and on ER in T47D cells (16 hrs treatment) was 10 to 100 nM each time. Further, the pIC50 on ERα_LBD (GST) is under 7.00.

As for `COc1cc(N2CCC3(CC2)CC(CN2CCN4c5cc6c(cc5OC[C@@H]4C2)C(=O)N([C@H]2CCC(=O)NC2=O)C6)C3)ccc1[C@@H]1c2ccc(O)cc2CC[C@@H]1c1ccccc1` (single isomer, unassigned) [Compound A12], the pIC50 at CRBN/DDB1 was 6.30 to 7.30; in the assay with MCF-7 cells, 7.00 to 8.00. The Dmax on ER in MCF-7 cells (setting [1]) and on ER in T47D cells (setting [2]) was over 75% in each case. Further, the DC50 at ER in MCF-7 cells (16 hrs treatment) and on ER in T47D cells (16 hrs treatment) was under 1 nM in each case.

Regarding `O=C1CC[C@@H](Nc2ccc(C3CCN(CC4CCC5(CC4)CN(c4ccc([C@@H]6c7ccc(O)cc7CC[C@@H]6c6ccccc6)cc4)C5)CC3)cc2)C(=O)N1` (single isomer, unassigned) [Compound A65], the values for the pIC50 on CRBN/DDB1 and in the assay with MCF-7 cells were 6.30 to 7.30 and 7.00 to 8.00, respectively. The Dmax is 50 to 75% on ER in MCF-7 cells (setting [1]) and over 75% at ER in T47D cells (setting [2]). Besides, the DC50 on ER in MCF-7 cells (16 hrs treatment) was 1 to 10 nM; on ER in T47D cells (16 hrs treatment), under 1 nM.

In the case of `COc1cc(N2CCC3(CC2)CC(CN2CCN4c5ccc6c(c5OC[C@H]4C2)CN([C@H]2CCC(=O)NC2=O)C6=O)CO3)ccc1[C@H]1c2ccc(O)cc2CC[C@H]1c1ccccc1` (single isomer, unassigned) [Compound A52], the maximal degradation (Dmax) at ER in MCF-7 cells (setting [3]) was 50 to 75%; on ER in T47D cells (setting [4]) it was over 75%. Moreover, the DC50 at ER in MCF-7 cells (16 hrs treatment) and at ER in T47D cells (16 hrs treatment) was under 1 nM in each case. Besides, at ERα_LBD (GST), the pIC50 was over 8.00.

Take `COc1cc(N2CCC3(CC2)CC(CN2CCN4c5cc6c(cc5OC[C@@H]4C2)C(=O)N([C@H]2CCC(=O)NC2=O)C6)CO3)ccc1[C@H]1c2ccc(O)cc2CC[C@H]1c1ccccc1` (single isomer, unassigned) [Compound A56]: the Dmax at ER in MCF-7 cells (setting [3]) is 50 to 75%; on ER in T47D cells (setting [4]), over 75%. Further, the DC50 at ER in MCF-7 cells (16 hrs treatment) and on ER in T47D cells (16 hrs treatment) was under 1 nM in each case. For the same molecule, the negative logarithm of the IC50 (pIC50) on ERα_LBD (GST) is over 8.00.

Take `COc1cc(N2CCC3(CC2)C[C@@H](CN2CCN4c5ccc6c(c5OC[C@H]4C2)CN([C@H]2CCC(=O)NC2=O)C6=O)CO3)ccc1[C@@H]1c2ccc(O)cc2CC[C@@H]1c1ccccc1` (single isomer, unassigned) [Compound A134]: the Dmax at ER in MCF-7 cells (setting [1]) is over 75%. Also, the DC50 on ER in MCF-7 cells (16 hrs treatment) is under 1 nM. At ERα_LBD (GST), the pIC50 was over 8.00.

With `COc1cc(N2CCC3(CC2)CC(CN2CCC4(CC2)COc2cc5c(cc24)CN([C@H]2CCC(=O)NC2=O)C5=O)C3)c(F)cc1[C@@H]1c2ccc(O)cc2CC[C@@H]1c1ccccc1` [Compound A129, (S)-3-(1′-((7-(2-fluoro-4-((1S,2S)-6-hydroxy-2-phenyl-1,2,3,4-tetrahydronaphthalen-1-yl)-5-methoxyphenyl)-7-azaspiro[3.5]nonan-2-yl)methyl)-7-oxo-5,7-dihydro-2H,6H-spiro[furo[2,3-f]isoindole-3,4′-piperidin]-6-yl)piperidine-2,6-dione], the Dmax on ER in MCF-7 cells (setting [3]) and at ER in T47D cells (setting [4]) was over 75% each time. The DC50 at ER in MCF-7 cells (16 hrs treatment) and at ER in T47D cells (16 hrs treatment) was under 1 nM throughout. The pIC50 at ERα_LBD (GST) is over 8.00.

Turning to `O=C1CC[C@H](N2Cc3c(ccc4c3OC[C@H]3CN(CC5CCC6(CC5)CN(c5ccc([C@@H]7c8ccc(O)cc8CC[C@@H]7c7ccccc7)cn5)C6)CCN43)C2=O)C(=O)N1` (single isomer, unassigned) [Compound A123], the Dmax at ER in MCF-7 cells (setting [1]) and on ER in T47D cells (setting [2]) was over 75% throughout. For the same molecule, at ERα_LBD (GST), the pIC50 is over 8.00.

“(S)-3-(1′-((2-(2-fluoro-4-((1S,2S)-6-hydroxy-2-phenyl-1,2,3,4-tetrahydronaphthalen-1-yl)-5-methoxyphenyl)-2-azaspiro[3.5]nonan-7-yl)methyl)-7-oxo-5,7-dihydro-2H,6H-spiro[furo[2,3-f]isoindole-3,4′-piperidin]-6-yl)piperidine-2,6-dione [Compound A166]”: on ER in MCF-7 cells (16 hrs treatment), the DC50 was under 1 nM. Moreover, the “MCF7 Dmax” value at ER in MCF-7 cells (MCF-7, maximal ER degradation, 16 hrs treatment) is “B (“B”: >50 and <75%)”. Moreover, at ERα_LBD (GST), the pIC50 is over 8.00.

With `COc1cc(N2CCC(CN3CCC4(CC3)COc3cc5c(cc34)CN([C@H]3CCC(=O)NC3=O)C5=O)CC2)ccc1[C@@H]1c2ccc(O)cc2CC[C@@H]1c1ccccc1` [Compound A33, (R)-3-(1′-((1-(4-((1R,2R)-6-hydroxy-2-phenyl-1,2,3,4-tetrahydronaphthalen-1-yl)-3-methoxyphenyl)piperidin-4-yl)methyl)-7-oxo-5,7-dihydro-2H,6H-spiro[furo[2,3-f]iso-indole-3,4′-piperidin]-6-yl)-piperidine-2,6-dione], the Dmax at ER in MCF-7 cells (setting [3]) and at ER in T47D cells (setting [4]) was 50 to 75% throughout. Further, the DC50 on ER in MCF-7 cells (16 hrs treatment) and at ER in T47D cells (16 hrs treatment) was under 1 nM in each case. Besides, the pIC50 at ERα_LBD (GST) is over 8.00.

Take `COc1cc(N2CCC3(CC2)C[C@H](CN2CCN4c5ccc6c(c5OC[C@H]4C2)CN([C@H]2CCC(=O)NC2=O)C6=O)CO3)ccc1[C@@H]1c2ccc(O)cc2CC[C@@H]1c1ccccc1` (single isomer, unassigned) [Compound A133]: the maximal degradation (Dmax) on ER in MCF-7 cells (setting [1]) is over 75%. Moreover, the DC50 on ER in MCF-7 cells (16 hrs treatment) was under 1 nM. At ERα_LBD (GST), the pIC50 is over 8.00.

As to `COc1cc(N2CCC3(CC2)CC(CN2CCN4c5cc6c(cc5OC[C@@H]4C2)C(=O)N([C@H]2CCC(=O)NC2=O)C6)C3)c(F)cc1[C@@H]1c2ccc(O)cc2CC[C@@H]1c1ccccc1` [Compound A101, (S)-3-((S)-3-((7-(2-fluoro-4-((1S,2S)-6-hydroxy-2-phenyl-1,2,3,4-tetrahydronaphthalen-1-yl)-5-methoxyphenyl)-7-azaspiro[3.5]nonan-2-yl)methyl)-8-oxo-1,2,3,4,4a,5,8,10-octahydro-9H-pyrazino[1′,2′: 4,5][1,4]oxazino[2,3-f]isoindol-9-yl)piperidine-2,6-dione], on ER in MCF-7 cells (setting [1]), the Dmax was over 75%. Moreover, the DC50 on ER in MCF-7 cells (16 hrs treatment) is under 1 nM. Moreover, the pIC50 on ERα_LBD (GST) was over 8.00.

For the molecule `COc1cc(N2CCC3(CC2)CC(CN2CCC(c4ccc(N[C@H]5CCC(=O)NC5=O)cc4)CC2)C3)c(F)cc1[C@@H]1c2ccc(O)cc2CC[C@@H]1c1ccccc1` (single isomer, unassigned) [Compound A30], the Dmax on ER in MCF-7 cells (setting [1]) is 50 to 75%; on ER in T47D cells (setting [2]), over 75%. Besides, the half-maximal degradation concentration (DC50) at ER in MCF-7 cells (16 hrs treatment) and on ER in T47D cells (16 hrs treatment) was under 1 nM in each case. In addition, at ERα_LBD (GST), the pIC50 was over 8.00.
